Experimental data from patent US20040071653A1, “Antimicrobial ternary surfactant blend comprising cationic, anionic, and bridging surfactants, and methods of preparing same” (Stepan Company, priority 2000, published 2004).

Tests used:
[1] = Ross Miles foaming, initial and final; format: physicochemical; conditions: 0.1% in water
Source text: (§1) In the following examples, all amounts are stated in percent by weight of active material unless indicated otherwise. Surface tension measurements, Draves wetting measurements, and Ross Miles foaming initial and final measurements all were taken at 0.1% concentration of the surfactant blend in water.

[2] = Draves wetting measurement; format: physicochemical; conditions: 0.1% in water
Source text: as §1

[3] = Surface tension measurement; format: physicochemical; conditions: 0.1% surfactant blend in water
Source text: as §1

[4] = system: Psudomonas aeruginosa (ATCC 15442); test: Time-Kill; format: cell-based, Pseudomonas aeruginosa; conditions: 100 ppm active
Protocol: (§2) Formulation 11-1 was prepared as described above and evaluated at two different concentrations against various microorganisms to determine the time required to kill certain levels of the microorganisms. Control formulation 11-2 was also tested in this assay at the same concentrations.
(§3) Preparation: Transfer each organism from stock slant to sterile Nutrient Broth (NB) tube. Incubate NB tubes at 36±1° C. After 24 hours incubation, subculture each broth culture to fresh tube of sterile NB. Repeat subculturing procedure at 24 hour intervals. Use cultures for testing after at least three consecutive 24 hour subculturings.
(§4) 2. Dispense 4.9 gram aliquots of each sample* into sterile medication tubes. Use one tube per organism. (*log10 reductions can be calculated by subtracting the log10 of the average inoculum count from the log10 of the test substance count after 30 seconds, 1 minute or 5 minutes contact)
(§5) 3. Centrifuge 18-24 hour broth culture of each test organism. Decant supernatant and re-suspend in equal volume of phosphate buffer. Re-centrifuge and re-suspend in phosphate buffer. Prepare 1:10 dilution of each culture suspension by adding 2 ml of culture to 18 ml of phosphate buffer. Mix by vortexing. Use this 1:10 dilution as the test inoculum.
(§6) 4. Perform initial plate count of the test inoculum by adding 0.1 ml of the inoculum to 4.9 grams of sterile distilled water. Vortex to mix, then remove 1 ml of solution and dilute in D/E Broth to 1:100,000. Plate 1:1,000, 1:10,000, and 1:100,000 dilutions in Microbial Content Agar (Difco).
(§7) 5. Begin testing of substances by adding 0.1 ml of test inoculum to sample tube. Vortex to mix. After 30 seconds, remove 1 ml of sample and add to 9 mls of DE broth, rinse pipette 5 times with sample and vortex. Remove additional 1 ml sample after 1 and 5 minutes contact and add to 9 mls of D/E Broth. Dilute each tube to 1:10,000 in D/E Broth and plate 1:1,000, 1:10,000, and 1:100,000 dilutions in Microbial Content Agar.
(§8) 7. After completion of step 6, perform final plate count of inoculum suspension by adding 0.1 ml of the suspension to 4.9 grams of sterile distilled water. Vortex to mix then remove 1 ml of solution and dilute in D/E Broth to 1:100,000. Plate 1:1,000, 1:10,000, and 1:100,000 dilutions in Microbial Content Agar (Difco).
(§9) 8. Incubate plates at 36±1° C. for 48 hours.
(§10) 9. Record all test results and calculate percent kills* after 30 seconds, 1 minute, and 5 minutes contact as follows: (*log10 reductions can be calculated by subtracting the log10 of the average inoculum count from the log10 of the test substance count after 30 seconds, 1 minute or 5 minutes contact) [formula]
(§11) X=Average of initial and final inoculum control counts, org/ml (Note: The difference between initial and final inoculum counts must be≦1 log for a valid study)
(§12) Y=Test substance bacterial count as org/ml after 30 seconds, 1 minute, or 5 minutes contact

Pa (ATCC 9027) = test: Time-Kill; format: cell-based, Pseudomonas aeruginosa; conditions: 50 ppm active
Protocol: as §2, §3, §4, §5, §6, §7, §8, §9, §10, §11, §12

[5] = system: Candida albicans (ATCC 10231); test: Minimum Inhibitory Concentration test, fungistatic responses; format: cell-based; conditions: for Fungistatic response C. albicans: triplicate; for Minimum Inhibitory Concentration C. albicans: lowest concentration completely inhibiting growth in all three replicates
Protocol: (§13) [table] [table] Add 0.1 ml of inoculum to each 20×150 mm test tube containing 9.0 ml of Nutrient or Sabouraud Dextrose Broth and 1 ml of a aqueous dilution of the test sample. Vortex tube to mix then incubate bacteria inoculated tubes at 36±1° C. for a minimum of 48±1 hour and fungi inoculated tubes at 28° C. for 7-10 days. Following incubation, observe tubes visually for the presence of growth (i.e. turbidity). Perform all testing in triplicate.

[6] = system: Aspergillus niger (ATCC 16404); test: as above; format: cell-based; conditions: for Fungistatic response A. niger: triplicate; for Minimum Inhibitory Concentration A. niger: lowest concentration completely inhibiting growth in all three replicates
Protocol: as §13

[7] = system: Candida albicans (ATCC 10231); test: Time-Kill; format: cell-based; conditions: 100 ppm active
Protocol: as §2, §3, §4, §5, §6, §7, §8, §9, §10, §11, §12

[8] = system: Staphylococcus aureus (ATCC 6538); test: Time-Kill; format: cell-based; conditions: 100 ppm active
Protocol: as §2, §3, §4, §5, §6, §7, §8, §9, §10, §11, §12

[9] = system: Aspergillus niger (ATCC 6275); test: Time-Kill; format: cell-based; conditions: 100 ppm active
Protocol: as §2, §3, §4, §5, §6, §7, §8, §9, §10, §11, §12

[10] = system: Escherichia coli (ATCC 11229); test: Time-Kill; format: cell-based; conditions: 100 ppm active
Protocol: as §2, §3, §4, §5, §6, §7, §8, §9, §10, §11, §12

[11] = system: Staphylococcus aureus (ATCC 6538); test: Minimum Inhibitory Concentration test, bacteriostatic responses; format: cell-based; conditions: for Bacteriostatic response S. aureus: triplicate; for Minimum Inhibitory Concentration S. aureus: lowest concentration completely inhibiting growth in all three replicates
Protocol: as §13

[12] = system: Pseudomonas aeruginosa (ATCC 15442); test: as above; format: cell-based; conditions: for Bacteriostatic response P. aeruginosa: triplicate; for Minimum Inhibitory Concentration P. aeruginosa: lowest concentration completely inhibiting growth in all three replicates
Protocol: as §13

[13] = system: Escherichia coli (ATCC 11229); test: as above; format: cell-based; conditions: for Bacteriostatic response E. coli: triplicate; for Minimum Inhibitory Concentration E. coli: lowest concentration completely inhibiting growth in all three replicates
Protocol: as §13

CCCCCCCCCC[N+](C)(C)C.[Cl-] [QC10, Decyltrimethylammonium chloride]
Foaming Final [1]: 0/0 cm | Foaming Initial [1]: 0/0 cm | Wetting [2]: 100 s | Surface Tension [3]: 39.28 mN/m

Cocamidopropyl betaine [Amphosol ® CA]
Foaming Final [1]: 12.9 cm | Foaming Initial [1]: 13 cm | Wetting [2]: 100 s | Surface Tension [3]: 36.75 mN/m

N-Alkyl dimethyl benzyl ammonium chloride [BTC 65NF]
Percent Kill Pa ([4]; 5 Minutes contact): 99.9 % K | Percent Kill Pa ([4]; 30 Seconds contact): 99.9 % K | Percent Kill Pa ([4]; 60 Seconds contact): 99.9 % K | Percent Kill Pa (ATCC 9027) (Pa (ATCC 9027); 5 Minutes contact): >99.9 % K | Percent Kill Pa (ATCC 9027) (Pa (ATCC 9027); 30 Seconds contact): 99.9 % K | Percent Kill Pa (ATCC 9027) (Pa (ATCC 9027); 60 Seconds contact): >99.9 % K | Fungistatic response C. albicans ([5]; 10 ppm active): 000 | Fungistatic response C. albicans ([5]; 100 ppm active): 000 | Fungistatic response C. albicans ([5]; 1000 ppm active): 000 | Minimum Inhibitory Concentration C. albicans [5]: 10 ppm, active | Fungistatic response A. niger ([6]; 10 ppm active): 000 | Fungistatic response A. niger ([6]; 100 ppm active): 000 | Fungistatic response A. niger ([6]; 1000 ppm active): 000 | Minimum Inhibitory Concentration A. niger [6]: 10 ppm, active | Percent Kill Ca ([7]; 5 Minutes contact): >99.7 % K | Percent Kill Ca ([7]; 30 Seconds contact): >99.7 % K | Percent Kill Ca ([7]; 60 Seconds contact): >99.7 % K | Percent Kill Sa ([8]; 5 Minutes contact): >99.8 % K | Percent Kill Sa ([8]; 30 Seconds contact): 65.5 % K | Percent Kill Sa ([8]; 60 Seconds contact): 83.6 % K | Percent Kill An ([9]; 5 Minutes contact): 92.3 % K | Percent Kill An ([9]; 30 Seconds contact): 0.0 % K | Percent Kill An ([9]; 60 Seconds contact): 22.5 % K | Percent Kill Ec ([10]; 5 Minutes contact): >99.9 % K | Percent Kill Ec ([10]; 30 Seconds contact): >99.9 % K | Percent Kill Ec ([10]; 60 Seconds contact): >99.9 % K | Bacteriostatic response S. aureus ([11]; 1 ppm active): 000 | Bacteriostatic response S. aureus ([11]; 10 ppm active): 000 | Bacteriostatic response S. aureus ([11]; 100 ppm active): 000 | Bacteriostatic response S. aureus ([11]; 1000 ppm active): 000 | Minimum Inhibitory Concentration S. aureus [11]: <1 ppm, active | Bacteriostatic response P. aeruginosa ([12]; 100 ppm active): 000 | Bacteriostatic response P. aeruginosa ([12]; 1000 ppm active): 000 | Minimum Inhibitory Concentration P. aeruginosa [12]: 100 ppm, active | Bacteriostatic response E. coli ([13]; 10 ppm active): 000 | Bacteriostatic response E. coli ([13]; 100 ppm active): 000 | Bacteriostatic response E. coli ([13]; 1000 ppm active): 000 | Minimum Inhibitory Concentration E. coli [13]: 10 ppm, active

CCCCCCCCS(=O)(=O)[O-].[Na+] [BIO-TERGE PAS-8S, Sodium 1-octane sulfonate]
Minimum Inhibitory Concentration C. albicans [5]: >1000 ppm, active | Minimum Inhibitory Concentration A. niger [6]: >1000 ppm, active | Minimum Inhibitory Concentration S. aureus [11]: >1000 ppm, active | Minimum Inhibitory Concentration P. aeruginosa [12]: >1000 ppm, active | Minimum Inhibitory Concentration E. coli [13]: >1000 ppm, active

CCCCCCCCCCCC[N+](C)(C)[O-] [AMMONYX-LO, Lauramine oxide]
Fungistatic response C. albicans ([5]; 100 ppm active): 000 | Fungistatic response C. albicans ([5]; 1000 ppm active): 000 | Minimum Inhibitory Concentration C. albicans [5]: 100 ppm, active | Fungistatic response A. niger ([6]; 100 ppm active): 000 | Fungistatic response A. niger ([6]; 1000 ppm active): 000 | Minimum Inhibitory Concentration A. niger [6]: 100 ppm, active | Bacteriostatic response S. aureus ([11]; 100 ppm active): 000 | Bacteriostatic response S. aureus ([11]; 1000 ppm active): 000 | Minimum Inhibitory Concentration S. aureus [11]: 100 ppm, active | Minimum Inhibitory Concentration P. aeruginosa [12]: >1000 ppm, active | Bacteriostatic response E. coli ([13]; 1000 ppm active): 000 | Minimum Inhibitory Concentration E. coli [13]: 1000 ppm, active
